{
  "source": "patent US5977075A",
  "about": "“N-aroylamino acid amides as endothelin inhibitors” (Novartis AG, priority 1997, dated 1999)",
  "key": {"human ETA": {"target": "T1, human ETA (Homo sapiens, UniProt P25101)", "T1 construct": "expressed in transfected cells; host or cells: CHO (Chinese hamster ovary) cells, membrane preparation", "T1 sequence (P25101 21-427)": "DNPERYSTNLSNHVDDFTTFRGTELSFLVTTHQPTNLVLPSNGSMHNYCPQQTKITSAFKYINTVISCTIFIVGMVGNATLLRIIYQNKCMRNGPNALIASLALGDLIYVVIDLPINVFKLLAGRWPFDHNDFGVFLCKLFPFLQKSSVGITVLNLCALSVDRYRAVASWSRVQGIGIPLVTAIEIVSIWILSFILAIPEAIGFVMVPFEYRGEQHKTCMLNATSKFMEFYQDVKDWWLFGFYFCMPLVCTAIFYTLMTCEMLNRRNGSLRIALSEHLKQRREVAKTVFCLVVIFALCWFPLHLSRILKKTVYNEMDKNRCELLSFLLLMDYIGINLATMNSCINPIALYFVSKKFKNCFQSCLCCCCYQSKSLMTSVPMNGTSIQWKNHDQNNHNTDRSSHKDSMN", "assay": "Competition binding of [125I] ET-1 to CHO-ETA membranes", "details": "[125I] ET-1, 2 hours at 37° C.", "description": "(§1) 1. Binding Studies--ETA and ETB ;\n(§2) Chinese hamster ovary cells expressing human ETA (CHO-ETA) or ETB (CHO-ETB) receptors are cultured in F12 medium (cibcoBRL, Grand Island, N.Y.) containing 10% fetal bovine serum and 1× antibiotic-antimycotic (GibcoBRL). Cells are harvested, then centrifuged, and finally homogenized in buffer containing 1 mM EDTA and […] Tris, pH 8.0. The cell debris is removed by brief centrifugation, and then the supernatant centrifuged again at 50,000×g for 10 minutes. The resulting pellet is resuspended in Hanks' balanced salt solution at a protein concentration of […] and stored in aliquots at -80° C. Competition binding is carried out by in incubating 0.2-1.0 mg of membrane protein from CHO-ETA or CHO-ETB cells with 12,000 cpm [^125 I] ET-1 (New England Nuclear, Boston, Mass.) with or without the competing ligand for 2 hours at 37° C. in a buffer containing 0.2 mg/ml bovine serum albumin, 0.002% Triton X-100, 0.02% NaN3, and […] Tris, pH 7.0. The reaction is terminated by filtration through a cell harvester (Brandel, Gaitherburg, Md.) using GF/C filters. Triplicate samples are carried out in each experiment, and if appropriate, the full dose-response curve for each competing ligand is performed at least three times. […]"}, "human ETB": {"target": "T2, human ETB (Homo sapiens, UniProt P24530)", "T2 construct": "expressed in transfected cells; host or cells: CHO (Chinese hamster ovary) cells, membrane preparation", "T2 sequence (P24530 27-442)": "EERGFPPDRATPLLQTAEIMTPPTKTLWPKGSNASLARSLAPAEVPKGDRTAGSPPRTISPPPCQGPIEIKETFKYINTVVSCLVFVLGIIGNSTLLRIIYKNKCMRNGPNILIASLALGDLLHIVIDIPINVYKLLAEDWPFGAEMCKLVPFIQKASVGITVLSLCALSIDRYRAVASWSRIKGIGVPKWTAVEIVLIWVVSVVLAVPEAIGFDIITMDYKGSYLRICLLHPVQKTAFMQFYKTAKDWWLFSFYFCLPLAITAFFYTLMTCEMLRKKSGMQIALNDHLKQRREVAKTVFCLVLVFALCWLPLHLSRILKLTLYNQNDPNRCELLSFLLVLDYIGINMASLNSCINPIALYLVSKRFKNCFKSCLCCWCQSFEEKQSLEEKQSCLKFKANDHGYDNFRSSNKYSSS", "assay": "Competition binding of [125I] ET-1 to CHO-ETB membranes", "details": "[125I] ET-1, 2 hours at 37° C.", "description": "as §1, §2"}, "ETB": {"target": "T3, ETB (Canis lupus familiaris, UniProt P56497)", "T3 construct": "from tissue; host or cells: saphenous vein segments from mongrel dogs", "T3 sequence (P56497 27-442)": "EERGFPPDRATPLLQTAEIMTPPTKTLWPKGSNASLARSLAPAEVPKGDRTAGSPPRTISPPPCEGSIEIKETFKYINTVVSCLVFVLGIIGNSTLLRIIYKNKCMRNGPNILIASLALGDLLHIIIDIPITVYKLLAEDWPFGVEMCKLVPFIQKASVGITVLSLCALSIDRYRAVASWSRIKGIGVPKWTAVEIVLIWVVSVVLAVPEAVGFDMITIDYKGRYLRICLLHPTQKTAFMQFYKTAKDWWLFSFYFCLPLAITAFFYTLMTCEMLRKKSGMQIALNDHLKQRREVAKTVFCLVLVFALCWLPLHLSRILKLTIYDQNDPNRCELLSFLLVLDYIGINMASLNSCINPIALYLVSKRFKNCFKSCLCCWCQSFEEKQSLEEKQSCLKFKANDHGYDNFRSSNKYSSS", "assay": "Isolated tissue study, isometric tension, dog saphenous veins", "parameters": "species or system mongrel dogs", "details": "antagonist added 30 minutes prior to ET-1 or STX6c", "description": "(§3) 2. Isolated Tissue Studies\n(§4) Studies measuring isometric tension are carried out according to the procedure of Shetty et al. (Biochem. Biophys. Res. Comm. 1993; 191:459-464). Saphenous veins (for antagonism of ETB) are obtained from mongrel dogs which are anesthetized with pentobarbital. Thoracic aortas are obtained from Sprague-Dawley male rats (for antagonism of ETA). Coronary arteries are obtained from porcine hearts. Tissue segments (4-5 mm) from each vascular preparation are equilibrated for 90 minutes during which time the tissues are adjusted to a preload tension of 2 gm, except for the porcine coronary which is adjusted to 4 gm preload. Concentration-response curves are generated by the cumulative addition of the peptides. Antagonists are added 30 minutes prior to the addition of ET-1 or STX6c. Contractions are expressed as a percentage of the response to […] KCl. Relaxation is quantitated by expressing the tension after relaxation as a percent of the tension induced by 1 mM phenylephrine."}, "ETA": {"target": "T4, ETA (Rattus norvegicus, UniProt P26684)", "T4 construct": "from tissue; host or cells: thoracic aorta segments from Sprague-Dawley male rats", "T4 sequence (P26684 21-426)": "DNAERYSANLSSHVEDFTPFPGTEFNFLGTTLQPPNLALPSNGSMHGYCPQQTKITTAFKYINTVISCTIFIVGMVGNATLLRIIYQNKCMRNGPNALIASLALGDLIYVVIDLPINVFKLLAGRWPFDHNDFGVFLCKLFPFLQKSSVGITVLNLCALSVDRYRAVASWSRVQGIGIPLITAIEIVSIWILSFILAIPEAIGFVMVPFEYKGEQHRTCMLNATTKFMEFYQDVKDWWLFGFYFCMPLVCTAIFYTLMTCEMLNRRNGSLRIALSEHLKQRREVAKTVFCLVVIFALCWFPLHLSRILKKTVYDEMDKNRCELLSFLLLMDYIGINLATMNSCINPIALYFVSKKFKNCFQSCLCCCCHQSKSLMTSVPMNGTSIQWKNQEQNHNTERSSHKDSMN", "assay": "Isolated tissue study, isometric tension, thoracic aorta", "parameters": "species or system Sprague-Dawley male rats", "details": "antagonist added 30 minutes prior to ET-1 or STX6c", "description": "as §3, §4"}},
  "data": [
    {"smiles": "CCCCS(=O)(=O)NC(=O)C1(NC(=O)[C@@H](Cc2ccc(-n3cccc3)cc2)N(C)C(=O)c2cc(C)cc(C)c2)CC1", "note": "[example 1, R-N-[N-3,5-dimethylbenzoyl-N-methyl-3-[4-(1-pyrrolyl)phenyl]alanyl]-1-aminocyclo propane-1-N-(n-butanesulfonyl)carboxamide]", "values": [
      {"measurement": "IC50", "setting": "human ETA", "result": "< 1", "unit": "nM"},
      {"measurement": "IC50", "setting": "human ETB", "result": "< 1", "unit": "nM"},
      {"measurement": "ET-induced contractile response in dog saphenous veins", "setting": "ETB", "result": "inhibit ET-induced contractile response"},
      {"measurement": "ET-induced contractile response in thoracic aorta", "setting": "ETA", "result": "inhibit ET-induced contractile response"}
    ]}
  ]
}
